# Source: US20250282720A1, “ALKYLSULFENYL THIOCARBONATES: PRECURSORS TO HYDROPERSULFIDES POTENTLY ATTENUATE OXIDATIVE STRESS” (The Johns Hopkins University, priority 2021, published 2025)
# Key:
# H9c2 cardiac myoblasts [1] = experiment: H9c2 cell protection from H2O2-mediated oxidative stress, CCK-8; assay type: cell-based, rat; details: 50 μM, 4 and 8 h, then H2O2 200 μM
# Description: The cytoprotective effects of 1a was then measured against oxidative stress.
# (§2) H9c2 embryonic rat heart myoblasts were obtained from the American Type Culture Collection. Cells were grown in Dulbecco's minimal essential medium (DMEM), supplemented with fetal bovine serum (FBS) 10%, penicillin 100 U/mL and streptomycin 100 μg/mL. They were propagated in T75-flasks, split before reaching 70-80% confluence (usually every day or every second day), and used within 11 passages. Cells were passaged to tissue culture treated 96-well microtiter plates at the specified density in 180 μL volumes and incubated for 24 h.
# Cells were seeded at a density of 5×10^3 cells/well. After 24 h, precursor 1a or by-product 4a was added at 20 μL volumes using DMSO:H2O (<0.01% DMSO as the vehicle). Cells were incubated for 2 h before media was removed and the cells gently washed with PBS (pH 7.4). Then, 180 μL of fresh media and 20 μL H2O2 diluted into H2O were added and cells were incubated for an additional 2 h. At the completion of H2O2 exposure, each well is carefully washed 3 times with PBS (pH 7.4) before adding 100 μL of media, without-FBS, containing 10% v/v CCK-8 (Dojindo) and incubated for 3 h prior to obtaining absorbance values at 450 nm. The relative % viability was calculated as 100 times the ratio of the Abs450 (pre-treated, H2O2-exposed) over Abs450 (vehicle-treated, non H2O2-exposed).
# H9c2 cardiac myoblasts [2] = experiment: Cytotoxicity study, Sytox Green viability assay; details: up to 100 mM, 24 h
# Description: as §2
# Cells were seeded at a density of 1×10^4 cells/well. After 24 h, the media was replaced and compound added in 20 μL volumes using DMSO:H2O (<0.01% DMSO) as the vehicle. Cells were incubated for an additional 24 h before media was removed. Then, 100 μL of media containing 3 μM Sytox Green nucleic acid stain (Invitrogen) was added and the cells were incubated for 2 h before fluorescence readings were obtained at 485Ex/538Em (Step 1). Finally, an additional 100 μL of media containing 3 μM Sytox and 0.2% Triton X-100 was added to permeabilize all cells and incubated for 1 h before fluorescence values measured (Step 2). The relative % cells surviving was calculated as a 100% minus the ratio of the fluorescence value of Step 1 over Step 2 (% cells surviving=100%−(FL538 (Step 1)/FL538 (Step 2)). See FIG. 8.
# [3] = tested on: FA skin fibroblasts (GM04078); experiment: Cytotoxicity in FA skin fibroblasts; details: 24 h of exposure, at least up to 100 μM
# Excerpt: (§1) Initially, we measured the cytotoxicity of AST in FA skin fibroblasts (GM04078), obtained from the Coriell Institute, to ensure that the RSSH donor itself is not cytotoxic. […] We then measured the ability of AST to confer cytoprotection in FA fibroblasts against hydrogen peroxide (H2O2) stress.
# FA fibroblasts (GM04078) = experiment: Cytoprotection against H2O2 stress in FA fibroblasts, CCK8; assay type: cell-based, human; details: 4 h pretreatment, H2O2 75 μM for 4 h
# Description: FIG. 10A, pretreatment of AST with varying concentrations in FA fibroblasts (GM04078, Coriell Institute) for 4 h followed by 4 h treatment with H2O2. Viability was measured using CCK8 assay. FIG. 10B, pretreatment of AST with varying concentrations in FA fibroblasts for 4 h followed by treatment with erastin for 24 h. […] Group comparisons are determined by a one-way analysis of variance (ANOVA) with Dunnet's correction post-hoc test using GraphPad Prism 8;
# as §1
# [4] = Decomposition of precursors in the presence of thiol (NAC / N-acetyl cysteine methyl ester), HPLC; assay type: physicochemical; details: 5 equiv NAC, PBS pH 7.4, HPLC
# Description: Initially, the decomposition of 1a was analyzed in the presence of 5 equiv of N-acetylcysteine (NAC) in PBS (pH 7.4) by HPLC. […] To investigate the mechanism, this reaction was monitored by UPLC-MS. […] Additionally, a small amount of unsymmetrical dialkyl polysulfide (pink highlight, R^1SSnSR^2, n=0-3) is observed, likely formed via NAC reaction with symmetrical dialkyl polysulfides (Scheme 1-5, eq. 7). As expected, a new peak at 5.65 min corresponding to N-acetyl cysteine-thiocarbonate 9a also is observed, confirming thiol attack at the perthiocarbonate carbonyl carbon of 1a to release RSSH. Due to the unstable nature of RSSH under these experimental conditions, the yield of the by-product 9a was measured as an indication of RSSH yield. The observation of RSSH-derived polysulfides formation as major products led us to anticipate the efficient formation of by-product 9a. […] The lower observed yield of 9a is likely due to its further reaction with RSSH under these conditions. […]
# To a solution of N-acetyl cysteine methyl ester (500 μM) in pH 7.4 phosphate buffer saline (100 mM) containing DTPA (100 μM), precursor 1a or 8 (100 μM) was added. […] At different time points, an aliquot of the reaction mixture (500 μL) was withdrawn and transferred to pre-cooled 0.1% formic acid (500 μL) and analyzed using HPLC. […]
t1/2 of decomposition in the presence of thiol [4] [min],SMILES,cytoprotection against H2O2-mediated toxicity (by-product control) (H9c2 cardiac myoblasts [1]),toxicity toward H9c2 cells (H9c2 cardiac myoblasts [2]),toxicity toward FA fibroblasts [3],cytoprotection against H2O2 stress (FA fibroblasts (GM04078))
–,"Oc1ccccc1 [Precursor 4a, phenol]",no protective effect,no toxicity,do not show toxicity,ineffective
4.0 ± 0.7,"COC(=O)C(NC(C)=O)C(C)(C)SSC(=O)OCc1ccccc1 (centres unmarked) [Precursor 8, Methyl 2-acetamido-3-(((benzyloxy)carbonyl)disulfaneyl)-3-methylbutanoate]",–,–,–,–
